Reference: paper PMC6491434 (Scientific Reports, 2019)

What was measured:
CK1 = test: protein kinase catalytic activity assay, CK1; type: biochemical; details: read-out: IC50 towards CK1
CDK9/T = molecular target: T1, CDK9/T (Homo sapiens, UniProt P50750); test: protein kinase catalytic activity assay, CDK9/cyclin T; type: biochemical; details: read-out: IC50 towards CDK9/T
T1 construct: made in house

ABCB4-L556R = molecular target: T2, ABCB4-L556R (Homo sapiens, UniProt P21439, L556R); test: Canalicular localisation of ABCB4-L556R by indirect immunofluorescence in HepG2 cells; type: cell-based; details: 25 µM
T2 construct: wild type (WT) ABCB4, isoform A (NM_000443.3), into pcDNA3 vector; expressed in transfected cells; host or cells: HepG2

ABCB4-WT [1] = molecular target: T3, ABCB4-WT (Homo sapiens, UniProt P21439); test: ABCB4-mediated phosphatidylcholine secretion, HEK cells expressing ABCB4-WT; type: cell-based; details: from dose-response curves of Fig. 4C, read-out: IC50 (µM) (min-max) on the PC secretion activity of ABCB4-WT
T3 construct: wild type (WT) ABCB4, isoform A (NM_000443.3), into pcDNA3 vector; expressed in transfected cells; host or cells: HEK-293
Description: (§1) Cyclosporin A (CsA) was from Santa Cruz Biotechnologies (Dallas, TX). […] Each compound was solubilized in dimethylsulfoxide (DMSO) as 1000X concentrated stock solutions in order to treat cells with 5 µM to 100 µM final concentrations, using DMSO as control vehicle at the same dilution (0.1% DMSO for all conditions). The cells were treated 24 hours post-transfection with these drugs during 16 hours, except for the viability assays for which cells were treated during three days. After drug treatment, cells were used for immunoanalyses, cell viability assays or PC secretion assays.
(§2) HEK cells were seeded in 0.01% poly-L-lysine (Sigma) pre-coated 6-well plates of 10 cm² area per well (1.3 × 10^6 cells per well). After transient transfection of the empty vector (control), plasmids encoding ABCB4-WT or its variants, cells were incubated during 24 hours at 37 °C in serum-free medium supplemented with 0.5 mM sodium taurocholate (Sigma) and 0.02% fatty acid–free bovine serum albumin (Sigma). Then, the secreted PC was quantified from the collected media using a fluoro-enzymatic assay previously described. Each condition was analysed in triplicate, after background subtraction, and results were normalized to the expression levels of ABCB4 determined by immunoblots of the corresponding cell lysates.

ABCB4-I541F [2] = molecular target: T4, ABCB4-I541F (Homo sapiens, UniProt P21439, I541F); test: ABCB4-mediated phosphatidylcholine secretion, HEK cells expressing ABCB4-I541F; type: cell-based; set-up: wild type (WT) ABCB4, isoform A (NM_000443.3), into pcDNA3 vector; expressed in transfected cells; host or cells: HEK-293 (immunoblot, PC secretion); details: 25 µM, vehicle 7.1 ± 0.8%
Description: as §1, §2

ABCB4-I490T = molecular target: T5, ABCB4-I490T (Homo sapiens, UniProt P21439, I490T); test: Canalicular localisation of ABCB4-I490T by indirect immunofluorescence in HepG2 cells; type: cell-based; details: 25 µM
T5 construct: wild type (WT) ABCB4, isoform A (NM_000443.3), into pcDNA3 vector; expressed in transfected cells; host or cells: HepG2

CDK5/p25 = molecular target: T6, CDK5/p25 (Homo sapiens, UniProt Q00535); test: protein kinase catalytic activity assay, CDK5/p25; type: biochemical; details: read-out: IC50 towards CDK5/p25
T6 construct: made in house

ABCB4-I541F [3] = molecular target: T4, ABCB4-I541F; test: Maturation of ABCB4-I541F by immunoblot in HEK cells; type: cell-based; set-up: wild type (WT) ABCB4, isoform A (NM_000443.3), into pcDNA3 vector; expressed in transfected cells; host or cells: HEK-293 (immunoblot, PC secretion); details: 100 µM, 16 hours
Description: For transient transfection of HEK cells, they were seeded at subconfluent levels in the adequate tissue culture wells at least six hours before transfection. Turbofect (Thermo Fisher scientific) was used at a ratio of reagent:DNA of 2:1 according to manufacturer’s instructions. For transient transfection of HepG2 cells, subconfluent cultures were seeded in the adequate culture wells 24 hours before transfection. Lipofectamine 3000 (Thermo Fisher Scientific) was used at a ratio of reagent:DNA of 1.5:1 according to manufacturer’s instructions. Cell treatments and processing for further analyses were performed at least 16 hours post-transfection.
as §1
Western blots and indirect immunofluorescence were performed as previously described[9],[50]. […] Signals were detected with ECL prime western blotting detection reagent (GE Healthcare, Velizy-Villacoublay, France) and quantified in the linear range of detection using ImageJ 1.50i software (U.S. National Institutes of Health, Bethesda, MD).

CDK2/A = molecular target: T7, CDK2/A (Homo sapiens, UniProt P24941); test: protein kinase catalytic activity assay, CDK2/cyclin A; type: biochemical; details: read-out: IC50 towards CDK2/A
T7 construct: made in house

[4] = Cell viability, MTT assay; details: human
Description: as §1
(§3) Cell viability was assessed by the conversion of MTT (3-[4,5-dimethylthiazol-2-yl]-2,5 diphenyl tetrazolium bromide) into formazan crystals by living cells, as described. In brief, HEK cells were seeded in 96-well plates in triplicate for each tested condition, including controls (no cells, no treatment, treatment with vehicle). […] These conditions were optimized in order to maintain the absorbance at 540 nm of the blanks below 0.1 OD unit (negative controls) and the absorbance at 540 nm for untreated cells between 1.0 and 1.3 OD units (positive controls). Then culture media were gently washed out, cells were lysed in 100 µL of pure DMSO and absorbance at 540 nm was measured using a multiplate cytofluorimeter SpectraFluor from Tecan (Männedorf, Switzerland). Cell viability was calculated for each triplicate after background subtraction and expressed as percentage of the mean for cells treated with vehicle only.

HEK cells = test: Cell viability, MTT assay; details: three days
Description: as §1, §3

ABCB4-I541F [5] = molecular target: T4, ABCB4-I541F; set-up: wild type (WT) ABCB4, isoform A (NM_000443.3), into pcDNA3 vector; expressed in transfected cells; host or cells: HEK-293 (immunoblot, PC secretion); HepG2 (immunofluorescence); method as in PMID 22184139, PMID 19185004; details: cited from earlier work
ABCB4-WT [6] = molecular target: T3, ABCB4-WT; set-up: method as in PMID 24806754; details: cited from earlier work

T6 sequence (Q00535 whole entry, species assumed): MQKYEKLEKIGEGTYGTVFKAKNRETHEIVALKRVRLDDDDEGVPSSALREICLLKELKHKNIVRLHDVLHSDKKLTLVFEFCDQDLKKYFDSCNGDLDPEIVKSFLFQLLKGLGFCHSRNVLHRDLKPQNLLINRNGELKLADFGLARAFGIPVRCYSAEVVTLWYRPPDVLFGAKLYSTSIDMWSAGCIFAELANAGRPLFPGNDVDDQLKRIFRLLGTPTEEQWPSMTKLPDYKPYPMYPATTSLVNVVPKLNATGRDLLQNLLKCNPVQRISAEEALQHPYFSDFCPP
T6 sequence (Q15078 99-307 partner limits assumed, species assumed): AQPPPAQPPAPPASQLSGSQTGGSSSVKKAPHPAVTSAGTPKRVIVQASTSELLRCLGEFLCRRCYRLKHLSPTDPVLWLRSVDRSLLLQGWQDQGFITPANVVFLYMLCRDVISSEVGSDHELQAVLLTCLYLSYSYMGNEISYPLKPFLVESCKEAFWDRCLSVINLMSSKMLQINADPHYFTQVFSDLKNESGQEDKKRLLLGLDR
T4 sequence (P21439 1-1279 isoform P21439-2 I541F): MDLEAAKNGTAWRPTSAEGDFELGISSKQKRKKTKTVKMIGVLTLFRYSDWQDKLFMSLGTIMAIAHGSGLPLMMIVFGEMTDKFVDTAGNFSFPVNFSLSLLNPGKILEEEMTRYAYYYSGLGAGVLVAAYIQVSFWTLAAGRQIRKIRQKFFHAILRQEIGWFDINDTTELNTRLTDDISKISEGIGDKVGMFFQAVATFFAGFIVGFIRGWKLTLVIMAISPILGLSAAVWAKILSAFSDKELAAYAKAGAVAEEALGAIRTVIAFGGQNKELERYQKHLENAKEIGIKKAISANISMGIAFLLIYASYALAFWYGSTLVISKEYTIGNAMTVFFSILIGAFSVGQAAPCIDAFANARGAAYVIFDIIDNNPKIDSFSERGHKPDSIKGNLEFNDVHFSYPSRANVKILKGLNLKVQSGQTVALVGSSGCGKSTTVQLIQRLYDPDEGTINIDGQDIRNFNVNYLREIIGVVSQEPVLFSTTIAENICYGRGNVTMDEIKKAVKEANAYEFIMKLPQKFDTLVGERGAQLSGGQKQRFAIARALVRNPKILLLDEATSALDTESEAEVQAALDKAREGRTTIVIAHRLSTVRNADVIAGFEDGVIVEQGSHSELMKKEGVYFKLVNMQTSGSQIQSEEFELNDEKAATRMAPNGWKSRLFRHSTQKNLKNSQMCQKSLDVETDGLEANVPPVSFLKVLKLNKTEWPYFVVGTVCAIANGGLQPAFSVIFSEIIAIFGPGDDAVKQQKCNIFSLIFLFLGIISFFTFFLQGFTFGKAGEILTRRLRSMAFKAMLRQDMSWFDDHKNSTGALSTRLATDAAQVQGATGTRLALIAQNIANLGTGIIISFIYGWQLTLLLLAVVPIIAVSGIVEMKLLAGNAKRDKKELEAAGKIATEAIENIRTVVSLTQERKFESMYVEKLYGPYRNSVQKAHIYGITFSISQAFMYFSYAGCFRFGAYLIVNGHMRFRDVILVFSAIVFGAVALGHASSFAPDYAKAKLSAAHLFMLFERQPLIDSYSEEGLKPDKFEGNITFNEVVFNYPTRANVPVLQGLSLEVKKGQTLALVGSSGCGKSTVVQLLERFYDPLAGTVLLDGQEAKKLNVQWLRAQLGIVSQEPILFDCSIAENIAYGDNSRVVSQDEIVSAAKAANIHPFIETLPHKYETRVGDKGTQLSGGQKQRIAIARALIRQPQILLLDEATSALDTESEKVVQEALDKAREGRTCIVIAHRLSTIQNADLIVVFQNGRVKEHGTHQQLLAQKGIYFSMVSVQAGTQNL
T1 sequence (P50750 whole entry, species assumed): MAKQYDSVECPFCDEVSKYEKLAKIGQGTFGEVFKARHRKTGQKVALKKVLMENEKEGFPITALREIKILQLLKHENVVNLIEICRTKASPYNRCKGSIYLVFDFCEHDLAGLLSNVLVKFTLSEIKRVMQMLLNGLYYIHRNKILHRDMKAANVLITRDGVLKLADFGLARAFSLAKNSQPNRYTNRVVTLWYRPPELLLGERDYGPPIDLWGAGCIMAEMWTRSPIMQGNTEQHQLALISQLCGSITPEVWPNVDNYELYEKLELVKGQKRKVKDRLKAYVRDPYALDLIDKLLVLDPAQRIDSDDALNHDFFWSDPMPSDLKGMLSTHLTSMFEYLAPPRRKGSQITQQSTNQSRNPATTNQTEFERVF
T1 sequence (O60563 whole entry partner, species assumed): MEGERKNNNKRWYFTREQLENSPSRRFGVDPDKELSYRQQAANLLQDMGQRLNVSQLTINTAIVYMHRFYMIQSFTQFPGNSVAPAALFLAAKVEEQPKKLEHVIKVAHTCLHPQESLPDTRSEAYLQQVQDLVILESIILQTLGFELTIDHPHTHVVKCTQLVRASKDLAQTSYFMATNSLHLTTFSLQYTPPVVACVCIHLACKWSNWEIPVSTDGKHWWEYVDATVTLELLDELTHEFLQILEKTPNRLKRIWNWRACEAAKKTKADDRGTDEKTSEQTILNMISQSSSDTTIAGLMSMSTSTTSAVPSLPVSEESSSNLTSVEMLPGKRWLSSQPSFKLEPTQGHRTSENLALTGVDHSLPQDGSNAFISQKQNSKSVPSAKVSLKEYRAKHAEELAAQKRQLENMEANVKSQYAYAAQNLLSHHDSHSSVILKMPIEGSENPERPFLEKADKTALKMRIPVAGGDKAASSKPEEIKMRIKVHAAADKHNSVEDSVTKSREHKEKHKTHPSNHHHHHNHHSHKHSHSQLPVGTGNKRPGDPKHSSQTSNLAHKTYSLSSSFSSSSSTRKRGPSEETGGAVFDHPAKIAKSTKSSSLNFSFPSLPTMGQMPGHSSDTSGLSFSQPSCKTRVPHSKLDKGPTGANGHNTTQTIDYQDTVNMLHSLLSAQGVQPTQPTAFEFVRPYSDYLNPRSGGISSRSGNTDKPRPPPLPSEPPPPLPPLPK
T5 sequence (P21439 1-1279 isoform P21439-2 I490T): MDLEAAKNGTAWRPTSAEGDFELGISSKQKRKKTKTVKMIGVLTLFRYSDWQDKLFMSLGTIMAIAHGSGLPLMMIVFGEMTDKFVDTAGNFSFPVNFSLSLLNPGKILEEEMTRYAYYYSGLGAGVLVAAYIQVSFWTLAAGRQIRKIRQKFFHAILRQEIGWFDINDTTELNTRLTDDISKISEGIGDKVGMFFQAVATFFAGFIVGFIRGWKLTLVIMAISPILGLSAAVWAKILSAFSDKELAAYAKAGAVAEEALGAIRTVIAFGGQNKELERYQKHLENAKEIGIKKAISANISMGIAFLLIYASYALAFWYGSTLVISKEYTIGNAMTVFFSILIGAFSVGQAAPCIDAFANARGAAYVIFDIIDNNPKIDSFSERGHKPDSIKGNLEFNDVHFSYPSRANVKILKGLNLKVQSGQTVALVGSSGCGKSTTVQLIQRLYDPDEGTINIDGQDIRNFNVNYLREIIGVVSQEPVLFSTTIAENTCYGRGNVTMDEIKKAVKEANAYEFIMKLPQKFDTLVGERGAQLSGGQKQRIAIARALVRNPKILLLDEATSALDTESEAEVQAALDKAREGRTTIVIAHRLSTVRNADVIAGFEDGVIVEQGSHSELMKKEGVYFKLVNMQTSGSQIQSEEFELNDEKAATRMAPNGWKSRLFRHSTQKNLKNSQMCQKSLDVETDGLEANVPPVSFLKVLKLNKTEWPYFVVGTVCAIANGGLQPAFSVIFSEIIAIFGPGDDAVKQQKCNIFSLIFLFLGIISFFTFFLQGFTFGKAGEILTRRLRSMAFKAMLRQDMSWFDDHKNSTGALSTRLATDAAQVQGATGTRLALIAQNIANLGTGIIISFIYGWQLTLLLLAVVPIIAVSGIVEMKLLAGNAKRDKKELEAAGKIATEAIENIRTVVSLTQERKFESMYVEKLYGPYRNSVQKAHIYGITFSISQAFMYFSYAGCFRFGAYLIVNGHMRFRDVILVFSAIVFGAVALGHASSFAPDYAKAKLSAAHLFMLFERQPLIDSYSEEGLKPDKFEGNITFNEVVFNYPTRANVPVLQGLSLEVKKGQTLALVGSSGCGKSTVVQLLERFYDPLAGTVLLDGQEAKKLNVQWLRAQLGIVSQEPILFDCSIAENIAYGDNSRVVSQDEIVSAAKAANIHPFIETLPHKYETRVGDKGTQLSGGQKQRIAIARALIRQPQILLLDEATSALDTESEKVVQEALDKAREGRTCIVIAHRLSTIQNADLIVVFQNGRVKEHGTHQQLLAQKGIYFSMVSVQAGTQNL

Compound | IC50 (CK1) [µM] | IC50 (CDK9/T) [µM] | IC50 (CDK5/p25) [µM] | maturation of ABCB4-I541F (expression of the mature form) (ABCB4-I541F [3]) | IC50 (CDK2/A) [µM] | other results
CC[C@@H](Nc1nc(NCc2ccccc2)c2ncn(C(C)C)c2n1)C(=O)O [M3, reference compound] | > 33 | > 33 |  |  |  | 
CC(Nc1nc(NCc2ccccc2)c2ncn(C(C)C)c2n1)C(=O)O (stereo not drawn) [MRT2-163] | 20 |  |  |  |  | 
CC(C)n1cnc2c(NCc3ccccc3)nc(N[C@@H](CO)C(=O)O)nc21 [MRT2-164] | 28 | 17 |  |  |  | 
CC[C@@H](Nc1nc(NCc2cccc(F)c2)c2ncn(C3CCCC3)c2n1)C(=O)O [MRT2-235] | 7 | 7 | 8.3 | significantly increase the expression of a mature form of ABCB4-I541F | 5.9 | relocalisation of ABCB4-L556R at bile canaliculi (ABCB4-L556R): partially relocalised at bile canaliculi; IC50 (ABCB4-WT [1]): 21 µM; PC secretion activity of ABCB4-I541F (% of ABCB4-WT activity) (ABCB4-I541F [2]): 19.0 ± 3.4%; relocalisation of ABCB4-I490T at bile canaliculi (ABCB4-I490T): partially relocalised at bile canaliculi
CC[C@@H](Nc1nc(NCc2cccc(Cl)c2)c2ncn(C3CCCC3)c2n1)C(=O)O [MRT2-237] | 3.33 | 9 | 7.7 | significantly increase the expression of a mature form of ABCB4-I541F | 3.4 | relocalisation of ABCB4-L556R at bile canaliculi (ABCB4-L556R): partially relocalised at bile canaliculi; IC50 (ABCB4-WT [1]): 29.3 µM; PC secretion activity of ABCB4-I541F (% of ABCB4-WT activity) (ABCB4-I541F [2]): 13.0 ± 3.5%; relocalisation of ABCB4-I490T at bile canaliculi (ABCB4-I490T): partially relocalised at bile canaliculi
CC[C@@H](Nc1nc(NCc2cccc(C(F)(F)F)c2)c2ncn(C3CCCC3)c2n1)C(=O)O [MRT2-239] | 4 | 20 | 11 | significantly increase the expression of a mature form of ABCB4-I541F | 8 | 
CC[C@@H](Nc1nc(NCc2ccc(F)c(F)c2)c2ncn(C3CCCC3)c2n1)C(=O)O [MRT2-241] | 11 | 8 | 17 | significantly increase the expression of a mature form of ABCB4-I541F | 5.1 | 
CC[C@@H](Nc1nc(NCc2ccc(Cl)c(F)c2)c2ncn(C3CCCC3)c2n1)C(=O)O [MRT2-243] | 6.1 | 5 | 6.3 | significantly increase the expression of a mature form of ABCB4-I541F | 3 | relocalisation of ABCB4-L556R at bile canaliculi (ABCB4-L556R): partially relocalised at bile canaliculi; IC50 (ABCB4-WT [1]): 17.6 µM; PC secretion activity of ABCB4-I541F (% of ABCB4-WT activity) (ABCB4-I541F [2]): 22.5 ± 6.2%; relocalisation of ABCB4-I490T at bile canaliculi (ABCB4-I490T): partially relocalised at bile canaliculi
CC[C@@H](Nc1nc(NCc2ccccc2)c2ncn(C3CCCC3)c2n1)C(=O)O [MRT2-245] | 17 | 28 | 15 | significantly increase the expression of a mature form of ABCB4-I541F | 6.3 | 
CC[C@@H](Nc1nc(NCc2cccc(C(F)(F)F)c2)c2ncn(C(C)C)c2n1)C(=O)O [MRT2-249] | 5 | > 33 | 27 | significantly increase the expression of a mature form of ABCB4-I541F | 9 | 
CC[C@H](CO)Nc1nc(NCc2ccccc2)c2ncn(C(C)C)c2n1 [Roscovitine, (R)-roscovitine] |  |  |  |  |  | viability at 72 h, 25 µM [4]: < 60%; cell viability after treatment at 100 µM (HEK cells; 100 µM, HEK cells expressing ABCB4-WT): massive cell death; cytotoxicity (HEK cells; increasing concentrations, HEK cells): important dose-dependent cytotoxicity
Cyclosporin A [CsA] |  |  |  |  |  | rescue of maturation and canalicular localisation of ABCB4-I541F (ABCB4-I541F [5]): partially rescued; effect on the PC secretion activity of ABCB4 (ABCB4-WT [6]): inhibits the PC secretion activity of ABCB4
